The structures appear in SMILES notation.

What all share (format): in vivo
The subject of test [1] is Strongyloides venezuelensis. Description: Test 3: Strongyloides venezuelensis in infected Mongolian gerbils, eggs in feces and worms recovered. To be noted: oral once 20 mg/kg, group mean. An excerpt:
For 1 rat, the 5000 infective larvae of Strongyloides venezuelensis were infected percutaneously to one group (2 rats) of 8 weeks old Mongolian gerbils. On the 10th day after they were infected, the suspended test compound was orally administered once with the amount of established administration. The effect was judged according to the amount of the eggs in the feces or the numbers of worms in the intestinal tract. The measurement of the numbers of the eggs were taken from O ring method, and the numbers of the eggs (EPG) in 1 g of feces were counted on the day before, on the day, and on the 1st, 2nd, 3rd, and 4th day after the administration. The numbers of the parasites were measured by dissecting Mongolian gerbils the 4th day after the administration (on the 14th day after infection). The method of measurement was followed by releasing the parasites, which live in the small intestines, into saline solution over night, and the released parasites were set to be as numbers of worms recovered.

The test system of test [2] is Nippostrongylus brasilienses. Description: Test 2: reduction of Nippostrongylus brasilienses in infected rats, subcutaneous administration. The note with it: Wistar rats, otherwise as Test 1. How it is done:
(§1) The effect of parasiticides was examined with the rats which was infected by nematodes which are parasitic on rats, Nippostrongylus brasilienses.
(§2) Wistar strain rats (female 6 weeks old, 120-130 g weight) were […] by infecting them and giving them subcutaneous injections of 3000 infective larvae per rat.
(§3) Test compound of 50 mg was dissolved in 0.25 ml dimethylsulfoxide, 0.5% methylcellulose solution was added, and liquid volume was adjusted to be prescribed volume of 100, 10, 5, 2.5, 1.25, 1.0, 0.63, 0.32 mg/kg to utilize. After they were infected, on each 7th, 8th, and 9th day, the test compound was administered orally with above concentration. On the 11th day, the rat was dissected and the numbers of parasites in the small intestines were measured.
The given measurement was based to calculate the reduction rate from the percentage of the numbers of the parasites of unadministered rats (control). The result of it is shown in the
The reduction rate was calculated in a similar manner as Test 1 except when the test compound was subcutaneously administered to the rats instead of oral administration as in Test 1.

Test [3] deals with Nippostrongylus brasilienses. Description: Test 1: reduction of Nippostrongylus brasilienses in infected rats, oral administration. The note with it: Wistar rats, oral on 7th, 8th and 9th day after infection, parasites in small intestines counted on 11th day. As for the experimental part:
as §1, §2, §3
The given measurement was based to calculate the reduction rate from the percentage of the numbers of the parasites of unadministered rats (control). The result of it is shown in the […]

For `CC(C)C[C@H]1C(=O)O[C@H](Cc2ccccc2)C(=O)N(C)[C@@H](CC(C)C)C(=O)O[C@H](C)C(=O)N(C)[C@@H](CC(C)C)C(=O)O[C@H](Cc2ccccc2)C(=O)N(C)[C@@H](CC(C)C)C(=O)O[C@H](C)C(=O)N1C` [PF1022], the “Change in Numbers of Parasites' Number of Eggs in Feces (EPG/100)” value in test [1] (day 0 (starting day of administration)) was 1615 EPG/100; in test [1] (day 1 after administration) it was 581 EPG/100; in test [1] (day 2 after administration), 1563 EPG/100; in test [1] (day 3 after administration) it was 935 EPG/100; in test [1] (day 4 after administration), 1005 EPG/100; in test [1] (day -2 (before administration)), 332 EPG/100. In test [1] (dissected 4th day after administration), the “Numbers of the Worms recovered” value is 3088. The figures for the “Minimum Amount of Administration indicated by more than 95% of Reduction Rate” value in test [2] and in test [3] were more than 100 mg/kg and 10 mg/kg, respectively.

Values taken from US5514773A, “Depsipeptide derivatives, production thereof and use thereof” (Fujisawa Pharmaceutical Co., Ltd., priority 1992, dated 1996).
